Results from patent US20230365620A1, “CYCLIN-DEPENDENT KINASE INHIBITORS AND METHODS OF USE” (DANA-FARBER CANCER INSTITUTE, INC., priority 2018, published 2023).

Experiments:
[1] = target: T1, CDK8 (Homo sapiens, UniProt P49336); assay: LANTHASCREEN Eu Kinase Binding Assay (competitive kinase binding, Tracer displacement); design: purchased INVITROGEN; conditions: displacing the Tracer from binding to the target kinase; read-out: Enzyme IC50
Experimental: The biological activities of the compounds of the present application can be assessed through a variety of methods known in the art. […] The changes in the signal produced by the reporting ligand when the compound is present relative when the compound is absent are recorded, which are calculated to provide the IC50 of the compound. Compounds of the present application were tested in a competitive kinase binding assay by using commercially available assay system. For example, LANTHASCREEN© Eu Kinase Binding Assay (INVITROGEN™) was used to measure the IC50 of the compounds of the present application in displacing the Tracer from binding to the target kinase, by following the assay protocol from INVITROGEN™.
Target sequence in this assay (P49336 whole entry): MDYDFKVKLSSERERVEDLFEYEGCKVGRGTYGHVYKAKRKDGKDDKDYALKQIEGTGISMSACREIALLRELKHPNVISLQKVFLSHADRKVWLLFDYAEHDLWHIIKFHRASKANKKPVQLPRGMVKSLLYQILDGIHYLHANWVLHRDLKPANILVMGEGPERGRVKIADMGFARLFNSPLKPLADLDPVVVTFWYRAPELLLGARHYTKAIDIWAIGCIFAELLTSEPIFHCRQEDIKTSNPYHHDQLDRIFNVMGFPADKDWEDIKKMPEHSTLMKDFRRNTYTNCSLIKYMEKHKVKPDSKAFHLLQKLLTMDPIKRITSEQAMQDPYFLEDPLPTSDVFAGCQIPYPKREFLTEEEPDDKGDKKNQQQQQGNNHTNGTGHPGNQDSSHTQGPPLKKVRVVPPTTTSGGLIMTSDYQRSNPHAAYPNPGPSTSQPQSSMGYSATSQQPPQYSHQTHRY
Target sequence in this assay (P24863 whole entry partner): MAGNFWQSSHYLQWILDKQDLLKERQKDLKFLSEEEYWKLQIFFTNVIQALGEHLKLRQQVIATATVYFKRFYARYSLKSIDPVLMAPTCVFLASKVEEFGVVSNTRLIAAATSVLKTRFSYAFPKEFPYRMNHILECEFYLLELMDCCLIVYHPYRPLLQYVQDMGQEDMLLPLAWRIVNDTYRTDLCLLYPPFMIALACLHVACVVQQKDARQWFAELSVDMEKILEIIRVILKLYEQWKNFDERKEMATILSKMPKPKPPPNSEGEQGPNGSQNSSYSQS

[2] = tested on: panel of 468 kinases; assay: KINOMESCAN binding analysis, panel of 468 kinases; conditions: 10 μM
Experimental: (§1) The KINOMESCAN® was performed with binding assays of Compound 33 against a panel of 468 kinases at a concentration of 10 μM.
(§2) To evaluate the kinase selectivity of compounds of the application, KINOMESCAN® binding analysis against a panel of 468 kinases at a concentration of 10 μM was conducted.

[3] = target: CDK19 (Homo sapiens, UniProt Q9BWU1); assay: KINOMESCAN binding analysis
Experimental: as §1, §2

[4] = target: T2, NEK1 (Homo sapiens, UniProt Q96PY6); assay: KINOMESCAN binding analysis
T2 sequence (Q96PY6 1-1258): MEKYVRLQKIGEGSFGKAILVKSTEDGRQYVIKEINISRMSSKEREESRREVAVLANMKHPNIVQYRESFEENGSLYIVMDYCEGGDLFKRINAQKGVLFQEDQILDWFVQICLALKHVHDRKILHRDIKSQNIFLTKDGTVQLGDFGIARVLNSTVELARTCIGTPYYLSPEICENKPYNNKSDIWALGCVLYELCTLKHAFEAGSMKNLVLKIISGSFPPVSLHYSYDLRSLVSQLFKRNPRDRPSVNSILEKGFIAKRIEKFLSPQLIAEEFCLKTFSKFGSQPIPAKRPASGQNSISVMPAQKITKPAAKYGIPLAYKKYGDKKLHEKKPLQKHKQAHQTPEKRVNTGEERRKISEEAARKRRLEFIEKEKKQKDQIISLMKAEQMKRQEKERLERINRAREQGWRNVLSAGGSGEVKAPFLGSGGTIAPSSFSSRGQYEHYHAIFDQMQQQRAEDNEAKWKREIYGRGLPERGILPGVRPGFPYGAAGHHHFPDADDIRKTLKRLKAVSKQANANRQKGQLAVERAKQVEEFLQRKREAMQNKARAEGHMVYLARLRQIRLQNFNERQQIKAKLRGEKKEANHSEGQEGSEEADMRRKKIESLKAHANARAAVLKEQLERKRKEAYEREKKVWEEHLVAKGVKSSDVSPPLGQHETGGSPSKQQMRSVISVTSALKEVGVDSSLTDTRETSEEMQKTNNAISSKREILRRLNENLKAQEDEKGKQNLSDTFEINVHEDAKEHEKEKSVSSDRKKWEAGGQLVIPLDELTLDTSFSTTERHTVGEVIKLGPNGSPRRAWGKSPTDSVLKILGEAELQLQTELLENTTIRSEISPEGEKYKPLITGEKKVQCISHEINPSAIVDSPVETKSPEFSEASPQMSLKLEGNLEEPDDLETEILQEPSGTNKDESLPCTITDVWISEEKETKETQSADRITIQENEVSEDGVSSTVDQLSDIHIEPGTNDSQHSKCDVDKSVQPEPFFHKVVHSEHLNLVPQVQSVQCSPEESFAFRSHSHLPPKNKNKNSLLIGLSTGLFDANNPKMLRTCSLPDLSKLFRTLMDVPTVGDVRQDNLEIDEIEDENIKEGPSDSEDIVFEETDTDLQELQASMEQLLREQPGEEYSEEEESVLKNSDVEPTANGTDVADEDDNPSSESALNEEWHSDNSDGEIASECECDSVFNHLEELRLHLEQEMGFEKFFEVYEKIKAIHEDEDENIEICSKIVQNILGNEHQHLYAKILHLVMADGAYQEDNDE
Experimental: as §1, §2

[5] = target: T1, CDK8; assay: KINOMESCAN binding analysis
Experimental: as §1, §2
Target sequence in this assay (P49336 whole entry): as the sequence (P49336 whole entry) above

[6] = target: PIKFYVE (Homo sapiens, UniProt Q9Y2I7); assay: KINOMESCAN binding analysis
Experimental: as §1, §2

[7] = tested on: phosphorylation of S727-STAT1, a known CDK8 substrate, in HepG2 cells; assay: Western blot of pS727-STAT1 in IFNγ-treated HepG2 cells; assay type: cell-based; conditions: 18 h with IFNγ, Compound 33 at 0.5, 1 or 5 μM, DCA at 0.1 or 1 μM
Experimental: FIG. 1 is a Western blot illustrating inhibition of phosphorylation of 5727-STAT1, a known CDK8 substrate, to form pS727-STAT1. pS727-STAT1 and total STAT1 were from HepG2 cells independently treated for 18 h with interferon gamma (IFNγ) and 0.5 μM, 1 μM, or 5 μM Compound 33, or with IFNγ and 0.1 μM or 1 μM dehydrocortistatin A (“DCA”).

[8] = target: T2, NEK1; assay: Dose-response analysis of NEK1; assay type: biochemical
[9] = target: T1, CDK8; assay: CDK8 IC50 stated for DCA; assay type: biochemical; design: purchased INVITROGEN
Target sequence in this assay (P49336 whole entry): as above
Target sequence in this assay (P24863 whole entry partner): as the sequence (P24863 whole entry partner) above

CDK19, sequence (Q9BWU1 whole entry): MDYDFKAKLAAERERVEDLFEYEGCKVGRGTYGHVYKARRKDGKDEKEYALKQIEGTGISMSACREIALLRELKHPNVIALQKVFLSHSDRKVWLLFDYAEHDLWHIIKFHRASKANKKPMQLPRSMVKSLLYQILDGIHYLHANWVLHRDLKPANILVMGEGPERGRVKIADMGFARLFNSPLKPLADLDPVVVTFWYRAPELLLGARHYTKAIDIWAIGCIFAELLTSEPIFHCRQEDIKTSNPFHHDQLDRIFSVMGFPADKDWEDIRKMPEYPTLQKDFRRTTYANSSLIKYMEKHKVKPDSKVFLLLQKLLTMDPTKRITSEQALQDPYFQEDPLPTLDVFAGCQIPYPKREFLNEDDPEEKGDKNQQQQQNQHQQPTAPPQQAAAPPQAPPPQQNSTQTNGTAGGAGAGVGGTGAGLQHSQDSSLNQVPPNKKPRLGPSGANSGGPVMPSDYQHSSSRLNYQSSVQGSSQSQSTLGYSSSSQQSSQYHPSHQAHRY
PIKFYVE, sequence (Q9Y2I7 whole entry): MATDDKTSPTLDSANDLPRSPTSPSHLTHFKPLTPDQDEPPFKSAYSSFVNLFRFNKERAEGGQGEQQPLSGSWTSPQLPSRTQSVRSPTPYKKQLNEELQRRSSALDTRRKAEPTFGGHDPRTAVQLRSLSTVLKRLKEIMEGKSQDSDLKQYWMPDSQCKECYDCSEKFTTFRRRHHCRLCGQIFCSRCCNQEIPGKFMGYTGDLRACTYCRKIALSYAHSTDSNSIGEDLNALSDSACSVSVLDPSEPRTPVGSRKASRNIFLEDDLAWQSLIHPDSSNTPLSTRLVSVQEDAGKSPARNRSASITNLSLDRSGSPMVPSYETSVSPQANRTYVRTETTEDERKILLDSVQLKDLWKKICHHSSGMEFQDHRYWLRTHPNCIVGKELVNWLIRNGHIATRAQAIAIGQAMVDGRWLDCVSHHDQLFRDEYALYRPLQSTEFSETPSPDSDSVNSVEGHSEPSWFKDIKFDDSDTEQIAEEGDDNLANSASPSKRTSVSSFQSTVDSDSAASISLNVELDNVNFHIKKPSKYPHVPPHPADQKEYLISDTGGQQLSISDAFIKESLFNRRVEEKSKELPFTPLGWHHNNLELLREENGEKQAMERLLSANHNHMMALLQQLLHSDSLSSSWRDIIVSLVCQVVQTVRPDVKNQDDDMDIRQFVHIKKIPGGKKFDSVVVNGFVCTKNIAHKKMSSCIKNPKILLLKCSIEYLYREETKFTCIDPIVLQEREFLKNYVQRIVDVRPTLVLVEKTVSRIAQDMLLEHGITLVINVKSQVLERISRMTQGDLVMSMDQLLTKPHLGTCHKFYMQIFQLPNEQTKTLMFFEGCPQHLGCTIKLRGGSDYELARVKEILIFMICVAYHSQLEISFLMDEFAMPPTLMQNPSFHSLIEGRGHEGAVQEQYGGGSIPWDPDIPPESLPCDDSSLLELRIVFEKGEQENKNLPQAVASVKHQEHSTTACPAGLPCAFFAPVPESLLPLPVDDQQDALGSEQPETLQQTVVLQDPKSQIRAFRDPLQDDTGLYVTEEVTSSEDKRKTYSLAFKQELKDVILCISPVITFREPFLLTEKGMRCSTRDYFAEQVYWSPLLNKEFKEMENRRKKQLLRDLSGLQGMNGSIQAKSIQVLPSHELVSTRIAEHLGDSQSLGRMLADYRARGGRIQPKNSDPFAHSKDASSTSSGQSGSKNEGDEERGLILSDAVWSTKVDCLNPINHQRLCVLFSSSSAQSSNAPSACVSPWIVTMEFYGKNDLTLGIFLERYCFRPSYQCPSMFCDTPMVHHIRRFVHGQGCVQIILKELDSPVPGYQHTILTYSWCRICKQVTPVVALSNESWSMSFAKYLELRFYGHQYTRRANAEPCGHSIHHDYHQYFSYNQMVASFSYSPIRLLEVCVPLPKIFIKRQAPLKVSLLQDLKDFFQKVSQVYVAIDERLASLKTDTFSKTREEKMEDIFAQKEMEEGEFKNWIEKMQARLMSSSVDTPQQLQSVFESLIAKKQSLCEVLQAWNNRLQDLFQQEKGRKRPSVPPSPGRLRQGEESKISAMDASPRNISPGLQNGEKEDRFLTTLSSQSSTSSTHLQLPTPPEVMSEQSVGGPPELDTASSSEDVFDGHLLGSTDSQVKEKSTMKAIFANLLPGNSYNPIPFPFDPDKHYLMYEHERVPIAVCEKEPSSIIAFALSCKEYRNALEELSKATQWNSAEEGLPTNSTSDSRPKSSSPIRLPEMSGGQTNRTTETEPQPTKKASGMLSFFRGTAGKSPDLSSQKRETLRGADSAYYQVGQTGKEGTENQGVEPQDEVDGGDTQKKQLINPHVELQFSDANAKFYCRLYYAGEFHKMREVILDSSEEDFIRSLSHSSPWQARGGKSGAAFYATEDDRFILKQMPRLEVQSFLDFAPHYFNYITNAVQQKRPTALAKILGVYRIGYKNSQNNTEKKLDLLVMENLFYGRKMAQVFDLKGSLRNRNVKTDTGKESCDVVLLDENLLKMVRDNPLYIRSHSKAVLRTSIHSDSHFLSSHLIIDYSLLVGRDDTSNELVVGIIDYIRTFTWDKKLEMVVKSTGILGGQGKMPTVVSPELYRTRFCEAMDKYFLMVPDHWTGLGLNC

Structure (SMILES)	IC50 [1] [µM]	further results
CN(C)[C@H]1CC[C@@]2(C)[C@@H](CC[C@@H]3[C@@H]2CC[C@]2(C)C(c4ccc5ccncc5c4)=CC[C@@H]32)C1 [Compound 22r, (3S,8R,9S,10S,13S,14S)-17-(isoquinolin-7-yl)-N,N,10,13-tetramethyl-2,3,4,5,6,7,8,9,10,11,12,13,14,15-tetradecahydro-1H-cyclopenta[a]phenanthren-3-amine]	0.101 to 0.2	–
C[C@]12CC[C@H]3[C@@H](CC=C4C[C@@H](O)CC[C@@]43C)[C@@H]1CC[C@@H]2c1ccc2[nH]ncc2c1 [Compound 12]	> 6	–
C[C@]12CC[C@H](N3CCOCC3)C[C@@H]1CC[C@@H]1[C@@H]2CC[C@]2(C)[C@@H](c3ccc4ccncc4c3)CC[C@@H]12 [Compound 34, 4-((3S,5S,8R,10S,13S,14S,17S)-17-(isoquinolin-7-yl)-10,13-dimethylhexadecahydro-1H-cyclopenta[a]phenanthren-3-yl)morpholine]	0.101 to 0.2	–
C[C@]12CC[C@H](n3ccnn3)C[C@@H]1CC[C@@H]1[C@@H]2CC[C@]2(C)[C@@H](c3ccc4ccncc4c3)CC[C@@H]12 [Compound 39, 7-((3S,8R,9S,10S,13S,14S,17S)-10,13-dimethyl-3-(1H-1,2,3-triazol-1-yl)hexadecahydro-1H-cyclopenta[a]phenanthren-17-yl)isoquinoline]	< 0.1	–
C[C@]12CC[C@H](O)CC1=CC[C@@H]1[C@@H]2CC[C@]2(C)C(c3ccc4[nH]ncc4c3)=CC[C@@H]12 [Compound 6]	> 6	–
C[C@]12CC[C@H](O)CC1=CC[C@@H]1C2CC[C@]2(C)C(c3ccc4cnccc4c3)=CC[C@@H]12 (some centres unmarked) [Compound 48]	> 6	–
CN(C)[C@H]1CC[C@@]2(C)C(=CCC3[C@@H]4CC[C@H](c5ccc6ccncc6c5)[C@@]4(C)CC[C@@H]32)C1 (stereo in doubt) [Compound 33, (3S,8R,9S,10R,13S,14S)-17-(isoquinolin-7-yl)-N,N,10,13-tetramethyl-2,3,4,7,8,9,10,11,12,13,14,15,16,17-tetradecahydro-1H-cyclopenta[a]phenanthren-3-amine]	< 0.1	kinase selectivity [2]: highly selective for CDK8 and CDK19; number of interactions greater than 90% inhibition [2]: 4; inhibition at 10 µM [3]: > 90%; inhibition at 10 µM [4]: > 90%; inhibition at 10 µM [5]: > 90%; inhibition at 10 µM [6]: > 90%; inhibition of S727 phosphorylation of STAT1 [7]: dose-dependent inhibition; IC50 [8]: > 10 µM
C[C@]12CC[C@H]3[C@@H](CC=C4C[C@@H](O)CC[C@@]43C)[C@@H]1CC[C@@H]2c1ccc2ccncc2c1 [Compound 8a, (3S,8S,9S,10R,13S,14S,17S)-17-(isoquinolin-7-yl)-10,13-dimethyl-2,3,4,7,8,9,10,11,12,13,14,15,16,17-tetradecahydro-1H-cyclopenta[a]phenanthren-3-ol]	< 0.1	–
CN(C)[C@@H]1CC[C@@]2(C)[C@@H](CC[C@@H]3[C@@H]2CC[C@]2(C)[C@@H](c4ccc5ccncc5c4)CC[C@@H]32)C1 [Compound 25]	< 0.1	–
C[C@]12CC[C@H](O)CC1=CC[C@@H]1[C@@H]2CC[C@]2(C)C(c3ccc4cn[nH]c4c3)=CC[C@@H]12 [Compound 7]	> 6	–
CN(C)[C@H]1C[C@@]23CC[C@@]4(O2)C(=CC[C@]2(C)C(c5ccc6ccncc6c5)=CC[C@H]24)C=C3[C@@H](O)[C@@H]1O [DCA, dehydrocortistatin A, reference compound]	–	IC50 [9]: 0.017 µM; inhibition of S727 phosphorylation of STAT1 [7]: dose-dependent inhibition
CN[C@H]1CC[C@@]2(C)[C@@H](CC[C@@H]3[C@@H]2CC[C@]2(C)[C@@H](c4ccc5ccncc5c4)CC[C@@H]32)C1 [Compound 46, (3S,8R,9S,10S,13S,14S,17S)-17-(isoquinolin-7-yl)-N,10,13-trimethylhexadecahydro-1H-cyclopenta[a]phenanthren-3-amine]	0.701 to 2	–
C[C@]12CC[C@H](O)CC1=CC[C@@H]1[C@@H]2CC[C@]2(C)C(c3ccc4cnncc4c3)=CC[C@@H]12 [Compound 3]	> 6	–
CN(C)[C@H]1CC[C@@]2(C)[C@@H](CC[C@@H]3[C@@H]2CC[C@]2(C)[C@@H](c4ccc5ccncc5c4)CC[C@@H]32)C1 [Compound 23, (3S,8R,9S,10S,13S,14S,17S)-(isoquinolin-7-yl)-N,N,10,13-tetramethylhexadecahydro-1H-cyclopenta[a]phenanthren-3-amine]	< 0.1	–
C[C@]12CC[C@H]3[C@@H](CC=C4C[C@@H](O)CC[C@@]43C)[C@@H]1CC[C@@H]2c1ccc2cnncc2c1 [Compound 9]	> 6	–
C[C@]12CC[C@H]3[C@@H](CC=C4C[C@@H](O)CC[C@@]43C)[C@@H]1CC[C@@H]2c1ccc2cn[nH]c2c1 [Compound 13]	> 6	–
C[C@]12CC[C@H](O)CC1=CC[C@@H]1[C@@H]2CC[C@]2(C)C(c3ccc4c(N)n[nH]c4c3)=CC[C@@H]12 [Compound 5]	0.701 to 2	–
